Reference: PMC11275179, “Superior Anticancer and Antifungal Activities of New Sulfanyl-Substituted Niclosamide Derivatives” (Biomedicines, 2024)
Values after ≈ are worked out from the molar mass of the structure shown. Values joined by “and” are separate entries in the source; they are usually repeats but may differ in a detail not shown here. Equal values may be shown once. Read-outs that look alike come from different tables or passages of the source.

Columns and labels:
[1] = system: M. mycetomatis MM55 strain; assay: In vivo activity in M. mycetomatis-infected G. mellonella larvae; design: species or system Galleria mellonella; d10 AUC / d10 ΔAUC: unit not given here; conditions: 20 µM; for d10 AUC: area under the survival curve; for d10 Survival / d10 Survival Corrected with Control: day 10; for d10 ΔAUC: versus control
Description: (§1) In vivo efficacy was determined in larvae of the greater wax moth Galleria mellonella. Since G. mellonella is an invertebrate, it is not subject to directive 2010/63/EU of the European law on animal testing. Larvae were housed in the dark in Petri dishes with Whatman paper. To determine the toxicity in G. mellonella larvae, test compounds were injected on three consecutive days at 24 h intervals in the last pro-leg of healthy larvae followed by monitoring of the survival for ten days. If no significant difference between the control and treated larvae was observed, the compound was considered nontoxic. Larvae were further used in infection studies to determine the in vivo activity of test compounds against M. mycetomatis according to our previously published protocol.

Kinetic solubility = assay type: physicochemical; conditions: aqueous buffer
Description: Kinetic solubility was tested using 10 mM stock solutions of test compounds in DMSO followed by dilution with an aqueous buffer to a final concentration of 250 µM and vortexed at 900 rpm for 24 h. Then, the samples were filtered and analyzed by UHPLC (Shimadzu Nexera X2, Milton Keynes, UK).

SK-GT-4 EAC cells = assay: MTT proliferation assay, SK-GT-4 cells; assay type: cell-based; conditions: read-out: Antiproliferative activity IC50, SK-GT-4
Description: (§2) The FLO-1, SK-GT-4, and THP-1 cell lines were a gift from Dr. Shrikant Anant’s laboratory. Cells were grown in 10% fetal bovine serum (Fisher Scientific#FB12999102, Pittsburgh, PA, USA) and 1% antibiotic/antimycotic agent (Corning, Tewksbury, MA, USA) in RPMI 1640 media mixed with […] HEPES, L-glutamine (Corning, MA, USA). The cell lines were grown in a 5% CO2 incubator at 37 °C and used below 15 passages for the experiments.
(§3) The proliferation assay used a 3-(4,5-dimethylthiazol-2-yl)-2,5-diphenyltetrazolium bromide (MTT) assay. Briefly, 5000 FLO-1 and SK-GT-4 cells were counted and seeded in each well in 96-well plates. Post 24 h of incubation, EAC cells were treated with multiple concentrations (0–10 μM) of niclosamide (Cayman chemical#10649, Ann Arbor, MI, USA) and its analogs. At respective time points, 10 μL of stock MTT reagent (Millipore Sigma, Bedford, MA, USA) (3 mg/mL) was added to each well and incubated for 1–2 h under the dark at 37 °C. After incubation, the purple formazan crystals were dissolved in equal volumes of DMSO, and the absorbance of the resulting clear solutions was recorded at 570 nm using a microplate reader. A CCK-8 (Abcam, Cat no. ab228554, Burlingame, CA, USA) assay was used for the THP-1 cells. Briefly, 5000 cells were plated in every well of a 96-well plate. After 24 h of plating, THP-1 cells were treated with niclosamide and compound 3a. After the respective time point, an equal amount of CCK-8 reagent was pipetted to the wells and incubated for one hour in an incubator, and finally, the absorbance was recorded at 450 nm. The percent change in the proliferation was calculated by comparing the cell viability of the treated groups to the untreated control cells.

[2] = HepG2 hepatotoxicity, resazurin assay; assay type: cell-based; conditions: human, HepG2 hepatoma cells, two independent experiments
Description: (§4) HepG2 hepatoma cells were used for hepatotoxicity studies. Cells were provided by ECACC with a certificate of analysis confirming STR profiling and were mycoplasma tested every time new stabilates were made. Cells were screened utilizing a resazurin-based fluorescence assay (λex = 540 nm, λem = 590 nm) in a 384-well plate format. HepG2 cells (1 × 10^5 cells/mL) were incubated with the compound in a 10-point, 1 in 3 dilution series from a top concentration of 100 µM, for 72 h. After the 72 h incubation period, resazurin (0.27 mM in a cell culture medium) was added and the plates were incubated for a further 3–4 h before the fluorescent signal was measured using PHERAstar (BMG Labtech, Ortenberg, Germany). IC50 values were calculated from two independent experiments.

HepG2 hepatoma cells = assay: HepG2 hepatotoxicity, resazurin assay; assay type: cell-based; conditions: 72 h, two independent experiments
Description: as §4

[3] = system: Galleria mellonella larvae; assay: Toxicity in healthy Galleria mellonella larvae; assay type: in vivo; conditions: 20 µM, 10 days
Description: as §1

M. mycetomatis strains = assay: In vitro susceptibility testing (MIC), panel of eight strains; assay type: cell-based, Madurella mycetomatis; conditions: for MIC50: concentration at which 50% of the eight isolates were completely inhibited
Description: (§5) The antifungal activity of the compounds was tested against a geographically and genetically diverse set of M. mycetomatis isolates. These included the MM55 strain from Sudan, strains I1, I3, and […] from India, strain P1 from Mali, strain SO1 from Somalia, strain Peru72012 from Peru, and strain CBS247.48 whose country of origin was unknown. All isolates were originally obtained from patients and identified and maintained in the Erasmus Medical Centre, Rotterdam, The Netherlands. In vitro susceptibility testing was performed as reported previously. The only difference was that tetrazolium compound 3-(4,5-dimethylthiazol-2-yl)-5-(3-carboxymethoxyphenyl)-2-(4-sulfophenyl)-2H-tetrazolium salt (MTS) was used as a viability dye in endpoint reading instead of 2,3-bis-(2-methoxy-4-nitro-5-sulfophenyl)-2H-tetrazolium-5-carboxanilide salt (XTT).

CHI logD = assay type: physicochemical; conditions: reversed-phase UHPLC
Description: CHI (chromatographic hydrophobicity index) logD was determined according to previously published methods. Test compounds were prepared as 0.5 mM solutions in 50:50 acetonitrile/water and analyzed by reversed-phase UHPLC (wavelength 254 nm). By plotting the retention time of a set of reference compounds against known CHI values, the CHI value of test compounds was calculated according to their retention time, and this was then further converted to CHI logD.

[4] = system: M. mycetomatis MM55 strain; assay: In vitro susceptibility testing (MTS), MM55 strain; assay type: cell-based, Madurella mycetomatis; conditions: for IC90: read-out: Antifungal activity IC90; for IC50: read-out: Antifungal activity IC50
Description: as §5

FLO-1 EAC cells = assay: MTT proliferation assay, FLO-1 cells; assay type: cell-based; conditions: read-out: Antiproliferative activity IC50, FLO-1
Description: as §2, §3

Microsomal clearance = assay type: in vitro ADME; conditions: for half-life at 0.5 µM: female, CD1, pH 7.4, mouse liver microsomes, read-out: Microsomal T ½; for Microsomal Clearance: mouse liver microsomes, 0.5 µM
Description: Liver microsomes were applied to study the microsomal clearance of test compounds. The test compound (0.5 µM) was incubated with female CD1 mouse liver microsomes (0.5 mg/mL, 50 mM potassium phosphate buffer, pH 7.4), and the reaction started with the addition of excess NADPH (8 mg/mL, 50 mM potassium phosphate buffer, and pH 7.4). Immediately, at time 0, then at 3, 6, 9, 15, and 30 min, an aliquot of the incubation mixture was removed and mixed with acetonitrile to stop the reaction. An internal standard (IS) was added to all samples, the samples were centrifuged to sediment precipitated protein, and the plates were then sealed prior to UPLC-MSMS analysis (Xevo TQ-S Micro, Waters^TM, Milford, MA, USA). An exponential decay fit was created from the response ratio (compound peak area/IS peak area) and incubation time, and subsequently, Clint (mL/min/mg protein) was calculated by multiplying the rate constant (k) of the exponential decay curve and incubation conditions (incubation volume/mg protein added).

[5] = system: M. mycetomatis SO1 isolate; design: method as in PMID 34209118; conditions: read-out: IC50 against the Somalian SO1 isolate; cited from earlier work
[6] = Madurella mycetomatis, CBS247, strain CBS247.48, read-out: MIC, CBS247.48
[7] = Madurella mycetomatis, strain I1, read-out: MIC, I1
[8] = Madurella mycetomatis, strain I3, read-out: MIC, I3
[9] = Madurella mycetomatis, strain I11, read-out: MIC, I11
[10] = Madurella mycetomatis, strain MM55, read-out: MIC, MM55
[11] = Madurella mycetomatis, strain P1, read-out: MIC, P1
[12] = Madurella mycetomatis, strain Peru72012, read-out: MIC, Peru72012
[13] = Madurella mycetomatis, strain SO1, read-out: MIC, SO1
[14] = Madurella mycetomatis, MM55STRAIN

SMILES	d10 AUC [1]	d10 Survival Corrected with Control ([1]; infected larvae)	d10 ΔAUC [1]	IC50 (SK-GT-4 EAC cells; SKGT4, 72 h)	MIC (M. mycetomatis strains; [6])	MIC (M. mycetomatis strains; [7])	MIC (M. mycetomatis strains; [8])	MIC (M. mycetomatis strains; [9])	MIC (M. mycetomatis strains; [10])	MIC (M. mycetomatis strains; [11])	MIC (M. mycetomatis strains; [12])	MIC (M. mycetomatis strains; [13])	MIC50 (M. mycetomatis strains; Madurella mycetomatis)	IC90 [4, 14]	IC50 (FLO-1 EAC cells; FLO-1, 72 h)	IC50 [4, 14]	other results
O=C(Nc1ccc(S(F)(F)(F)(F)F)cc1)c1cc(Cl)ccc1O [Compound 2a, 5-Chloro-2-hydroxy-N-(4-pentafluorosulfanylphenyl)benzamide]	445	13.33%	113.3	1.8 ± 0.17 µM	0.5 µM (≈ 0.187 µg/mL)	0.5 µM (≈ 0.187 µg/mL)	0.5 µM (≈ 0.187 µg/mL)	0.5 µM (≈ 0.187 µg/mL)	0.5 µM (≈ 0.187 µg/mL)	0.5 µM (≈ 0.187 µg/mL)	0.3 µM (≈ 0.112 µg/mL)	0.5 µM (≈ 0.187 µg/mL)	0.5 µM (≈ 0.187 µg/mL)	1.9 ± 0.6 µM	1.62 ± 0.55 µM	–	d10 Survival ([1]; infected larvae): 26.7% and 26.67%; solubility kinetic at 24 h (Kinetic solubility; kinetic from dmso stock): 0.67 µM (≈ 0.25 µg/mL); IC50 at 72 h [2]: 2.3 to 3 µM; IC50 (HepG2 hepatoma cells): 2.26 ± 0.31 µM; Toxicity to non-infected G. mellonella larvae [3]: not toxic; chromatographic logD (CHI logD): 3.9; IC50 [4]: 0.3 ± 0.1 µM; half-life at 0.5 µM (Microsomal clearance): > 30 min; Microsomal Clearance (Microsomal clearance): 0.02 mL/min/mg Protein
O=C(Nc1ccc(SC(F)(F)F)cc1)c1cc(Cl)ccc1O [Compound 2b, 5-Chloro-2-hydroxy-N-(4-trifluoromethylsulfanylphenyl)benzamide]	451.7	−3.33%	120	–	0.5 µM (≈ 0.174 µg/mL)	0.5 µM (≈ 0.174 µg/mL)	0.5 µM (≈ 0.174 µg/mL)	0.5 µM (≈ 0.174 µg/mL)	0.5 µM (≈ 0.174 µg/mL)	0.3 µM (≈ 0.104 µg/mL)	0.3 µM (≈ 0.104 µg/mL)	0.5 µM (≈ 0.174 µg/mL)	0.5 µM (≈ 0.174 µg/mL)	–	–	–	Effect on survival between days three and six ([1]; infected larvae): considerable temporary effect; d10 Survival ([1]; infected larvae): no increased survival; Kinetic solubility (Kinetic solubility; 24 h): stability issues; IC50 (SK-GT-4 EAC cells; 72 h): 2.02 ± 0.14 µM; IC50 at 72 h [2]: 2.3 to 3 µM; IC50 (HepG2 hepatoma cells): 2.99 ± 0.11 µM; Toxicity to non-infected G. mellonella larvae [3]: not toxic; chromatographic logD (CHI logD): 4.3; IC50 [4]: 0.2 ± 0.1 µM; IC90 [4]: 0.5 ± 0.6 µM; melting point: 200 to 201 °C; IC50 (FLO-1 EAC cells; 72 h): 2.2 ± 0.36 µM; half-life at 0.5 µM (Microsomal clearance): 6.66 min; Microsomal Clearance (Microsomal clearance): 0.21 mL/min/mg Protein
CCc1ccc(NC(=O)c2cc(Cl)ccc2O)cc1 [Compound 2d]	–	–	–	7.1 ± 0.75 µM	–	–	–	–	–	–	–	–	–	8.4 ± 1.1 µM	6.13 ± 0.96 µM	6.6 ± 2 µM	–
O=C(Nc1cccc(C(F)(F)F)c1)c1cc(Cl)ccc1O [MMV665807]	–	–	–	–	–	–	–	–	–	–	–	–	–	–	–	–	IC50 [5]: 9.93 µM
O=C(Nc1cccc(S(F)(F)(F)(F)F)c1)c1cc(Cl)ccc1O [Compound 2c, 5-Chloro-2-hydroxy-N-(3-pentafluorosulfanylphenyl)benzamide]	346.7	−3.33%	15	1.38 ± 0.45 µM	2 µM (≈ 0.747 µg/mL)	1 µM (≈ 0.374 µg/mL)	1 µM (≈ 0.374 µg/mL)	2 µM (≈ 0.747 µg/mL)	2 µM (≈ 0.747 µg/mL)	0.5 µM (≈ 0.187 µg/mL)	1 µM (≈ 0.374 µg/mL)	1 µM (≈ 0.374 µg/mL)	1 µM (≈ 0.374 µg/mL)	2 ± 0.1 µM	1.38 ± 0.4 µM	1.3 ± 0.7 µM	melting point: 197 °C
N.N.[Cl][Pt][Cl] [Cisplatin, reference compound]	–	–	–	–	–	–	–	–	–	–	–	–	–	–	–	–	IC50 (SK-GT-4 EAC cells; 72 h): 2.28 ± 0.14 µM; IC50 (FLO-1 EAC cells; 72 h): 1.7 ± 1.48 µM
O=C(Nc1ccc(C(F)(F)F)cc1)c1cc(Cl)ccc1O [Compound 2e]	453.3	3.33%	121.6	–	2 µM (≈ 0.631 µg/mL)	1 µM (≈ 0.316 µg/mL)	1 µM (≈ 0.316 µg/mL)	2 µM (≈ 0.631 µg/mL)	2 µM (≈ 0.631 µg/mL)	1 µM (≈ 0.316 µg/mL)	1 µM (≈ 0.316 µg/mL)	1 µM (≈ 0.316 µg/mL)	1 µM (≈ 0.316 µg/mL)	1.1 ± 0.2 µM	–	0.9 ± 0.2 µM	MIC (M. mycetomatis strains; strain MM55, read-out: MIC, MM55): 1.0 µM (≈ 0.316 µg/mL)
